What was measured:
[1] = tested on: E. coli (NCTC 10418); type: cell-based, Escherichia coli; conditions: E. coli (NCTC 10418); broth-dilution, MHB pH 7.4, 37 °C; positive control
Description: (§1) Gram-positive bacteria Staphylococcus aureus (NCTC 10788) and Enterococcus faecalis (NCTC 12697) and Gram-negative bacteria Escherichia coli (NCTC 10418), Pseudomonas aeruginosa (ATCC 27853), and Klebsiella pneumoniae (ATCC 43816) were tested. […] All the bacterial strains were inoculated in Mueller Hinton broth (MHB), pH 7.4 (Oxiod, Basingstoke, UK) at 37 °C. Then, the log-phase bacteria were mixed with the peptide at the concentrations from 512 to 1 µM in two-fold dilution, in a 96 well-plate. The wells contained sterilized MHB and bacteria cultures were employed as a blank and growth control, respectively.

[2] = tested on: K. pneumoniae (ATCC BAA 2342); type: cell-based, Klebsiella pneumoniae; conditions: K. pneumoniae (ATCC BAA 2342); broth-dilution, MHB pH 7.4, 37 °C; positive control
Description: as §1

[3] = tested on: K. pneumoniae (ATCC 43816); type: cell-based, Klebsiella pneumoniae; conditions: K. pneumoniae (ATCC 43816); broth-dilution, MHB pH 7.4, 37 °C; positive control
Description: as §1

[4] = tested on: S. aureus (NCTC 10788); type: cell-based, Staphylococcus aureus; conditions: S. aureus (NCTC 10788); broth-dilution, MHB pH 7.4, 37 °C; positive control
Description: as §1

[5] = tested on: K. pneumoniae (ATCC BAA 1705); type: cell-based, Klebsiella pneumoniae; conditions: K. pneumoniae (ATCC BAA 1705); broth-dilution, MHB pH 7.4, 37 °C; positive control
Description: as §1

[6] = tested on: P. aeruginosa (ATCC 27853); type: cell-based, Pseudomonas aeruginosa; conditions: P. aeruginosa (ATCC 27853); broth-dilution, MHB pH 7.4, 37 °C; positive control
Description: as §1

[7] = tested on: MRSA (NCTC 12493); type: cell-based, methicillin-resistant S. aureus; conditions: MRSA (NCTC 12493); broth-dilution, MHB pH 7.4, 37 °C; positive control
Description: as §1

[8] = tested on: E. faecalis (NCTC 12697); type: cell-based, Enterococcus faecalis; conditions: E. faecalis (NCTC 12697); broth-dilution, MHB pH 7.4, 37 °C; positive control
Description: as §1

MIC of antibiotic [1] | MIC of antibiotic [2] | MIC of antibiotic [3] | MIC of antibiotic [5] | MIC of antibiotic [6] | SMILES | MIC of antibiotic [4] | MIC of antibiotic [7] | MIC of antibiotic [8]
1/3.13 µg/mL | >32/>100.21 µg/mL | 2/6.26 µg/mL | >32/>100.21 µg/mL | 2/6.26 µg/mL | CCn1cc(C(=O)O)c(=O)c2cc(F)c(N3CCNCC3)cc21 [Norfloxacin, reference compound] | 2/6.26 µg/mL | 2/6.26 µg/mL | 4/12.53 µg/mL
– | – | – | – | – | CN[C@H](CC(C)C)C(=O)N[C@H]1C(=O)N[C@@H](CC(N)=O)C(=O)N[C@H]2C(=O)N[C@H]3C(=O)N[C@H](C(=O)N[C@H](C(=O)O)c4cc(O)cc(O)c4-c4cc3ccc4O)[C@H](O)c3ccc(c(Cl)c3)Oc3cc2cc(c3O[C@@H]2O[C@H](CO)[C@@H](O)[C@H](O)[C@H]2O[C@H]2C[C@](C)(N)[C@H](O)[C@H](C)O2)Oc2ccc(cc2Cl)[C@H]1O [Vancomycin, reference compound] | 0.125/0.08 µg/mL | 0.125/0.08 µg/mL | 1/0.69 µg/mL

— publication PMC7557582, “Broad-Spectrum Antimicrobial Activity and Improved Stability of a D-Amino Acid Enantiomer of DMPC-10A, the Designed Derivative of Dermaseptin Truncates” (Antibiotics, 2020)
